The text below walks through data of PMC5865150, “Structure and evolution of the Fam20 kinases” (Nature Communications, 2018).

The target in test [1] is T1, human Fam20B (hsFam20B) (Homo sapiens, UniProt O75063, K312R).
T1 construct: residues 55-402, His6-MBP fusion secreted from High Five insect cells, Ni-NTA; monomer
T1 sequence (O75063 55-402 K312R): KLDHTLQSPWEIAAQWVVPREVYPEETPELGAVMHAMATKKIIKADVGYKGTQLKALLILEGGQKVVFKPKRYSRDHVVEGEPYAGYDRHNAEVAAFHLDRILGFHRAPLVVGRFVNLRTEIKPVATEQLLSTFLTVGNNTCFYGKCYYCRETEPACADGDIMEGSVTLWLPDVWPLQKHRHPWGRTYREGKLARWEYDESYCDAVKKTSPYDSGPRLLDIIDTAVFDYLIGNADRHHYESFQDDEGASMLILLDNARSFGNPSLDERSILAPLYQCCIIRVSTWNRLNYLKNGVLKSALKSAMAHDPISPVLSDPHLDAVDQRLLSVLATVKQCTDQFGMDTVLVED
In words: […] incorporation from [γ-32P]ATP, Sep-Pak C18, scintillation counting. The test is classed as biochemical. The settings on record: 100 uM Gal-Xyl-benzyl, 100 uM ATP, 10 mM MnCl2, pH 7.5, 30 °C; mutant activity completely abolished.

The target of test [2] is T2, aqFam20 (Amphimedon queenslandica, UniProt A0A1X7UVU4).
T2 construct: gene 100636703; residues 31-418, His6-MBP fusion secreted from High Five insect cells, cloned from cDNA library; monomer
T2 sequence (A0A1X7UVU4 entry or part of it): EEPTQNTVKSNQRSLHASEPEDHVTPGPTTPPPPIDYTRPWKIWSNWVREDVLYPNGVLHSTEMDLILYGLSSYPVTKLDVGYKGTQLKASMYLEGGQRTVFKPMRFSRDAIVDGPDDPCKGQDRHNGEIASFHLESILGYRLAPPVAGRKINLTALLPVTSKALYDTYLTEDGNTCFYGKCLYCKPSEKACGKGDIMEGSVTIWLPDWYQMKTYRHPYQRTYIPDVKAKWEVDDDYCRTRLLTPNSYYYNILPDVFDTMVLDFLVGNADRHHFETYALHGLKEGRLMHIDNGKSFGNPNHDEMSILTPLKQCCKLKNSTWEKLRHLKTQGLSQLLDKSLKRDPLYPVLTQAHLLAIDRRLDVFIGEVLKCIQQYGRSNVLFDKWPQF
Described as above. The test is classed as biochemical. The note with it: 100 uM Gal-Xyl-benzyl, 100 uM ATP, 10 mM MnCl2, pH 7.5, 30 °C.

In test [3] the target is T3, hmFam20 (Hydra vulgaris, UniProt A0ABM4BCH6).
T3 construct: gene LOC100203383; residues 55-415, codon-optimized synthetic gene, High Five cells; for crystals His6-MBP removed with TEV and N-glycans trimmed with endoglycosidase F3; monomer
T3 sequence (A0ABM4BCH6 entry or part of it): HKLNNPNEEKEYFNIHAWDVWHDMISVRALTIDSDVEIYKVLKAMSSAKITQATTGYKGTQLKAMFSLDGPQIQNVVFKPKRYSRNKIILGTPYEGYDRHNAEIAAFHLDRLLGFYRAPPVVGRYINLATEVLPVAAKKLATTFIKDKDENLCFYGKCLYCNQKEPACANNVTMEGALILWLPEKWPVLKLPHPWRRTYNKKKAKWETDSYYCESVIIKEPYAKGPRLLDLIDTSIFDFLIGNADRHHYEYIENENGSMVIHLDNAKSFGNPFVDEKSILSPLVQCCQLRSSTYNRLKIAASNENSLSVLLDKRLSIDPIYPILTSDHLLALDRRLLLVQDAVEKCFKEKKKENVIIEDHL
In words: X-ray crystal structure, […] Å. The settings on record: co-crystallised with 2 mM Gal-Xyl-benzyl, 5 mM AMP-PNP, 10 mM MgCl2, pH 6.9; pocket next to the ATP-binding site; also phosphorylated by this enzyme (Figure 5b).

Test [4] has as its target T4, human Fam20B (hsFam20B) (Homo sapiens, UniProt O75063).
T4 construct: residues 55-402, His6-MBP fusion secreted from High Five insect cells, Ni-NTA; monomer
T4 sequence (O75063 55-402): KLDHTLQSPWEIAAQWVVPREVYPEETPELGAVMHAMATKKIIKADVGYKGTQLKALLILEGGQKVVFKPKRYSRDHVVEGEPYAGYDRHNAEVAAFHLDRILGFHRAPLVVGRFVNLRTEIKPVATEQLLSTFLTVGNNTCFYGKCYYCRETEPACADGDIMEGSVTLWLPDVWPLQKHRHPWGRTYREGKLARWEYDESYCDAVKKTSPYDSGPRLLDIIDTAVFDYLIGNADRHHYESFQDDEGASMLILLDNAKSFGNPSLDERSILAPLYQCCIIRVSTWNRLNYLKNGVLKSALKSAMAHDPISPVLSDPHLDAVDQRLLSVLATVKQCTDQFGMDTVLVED
In words: […] incorporation from [γ-32P]ATP, Sep-Pak C18, scintillation counting. Format: biochemical. The settings on record: 100 uM Gal-Xyl-benzyl, 100 uM ATP, 10 mM MnCl2, pH 7.5, 30 °C.

The target of test [5] is T5, human Fam20A−Fam20C complex (Homo sapiens, UniProt Q96MK3).
T5 construct: Fam20A residues 69-529 and Fam20C residues 63-584, High Five cells, His6-MBP tags removed with TEV; heterodimer in crystal; with Extracellular serine/threonine protein kinase FAM20C
T5 sequence (Q96MK3 69-529): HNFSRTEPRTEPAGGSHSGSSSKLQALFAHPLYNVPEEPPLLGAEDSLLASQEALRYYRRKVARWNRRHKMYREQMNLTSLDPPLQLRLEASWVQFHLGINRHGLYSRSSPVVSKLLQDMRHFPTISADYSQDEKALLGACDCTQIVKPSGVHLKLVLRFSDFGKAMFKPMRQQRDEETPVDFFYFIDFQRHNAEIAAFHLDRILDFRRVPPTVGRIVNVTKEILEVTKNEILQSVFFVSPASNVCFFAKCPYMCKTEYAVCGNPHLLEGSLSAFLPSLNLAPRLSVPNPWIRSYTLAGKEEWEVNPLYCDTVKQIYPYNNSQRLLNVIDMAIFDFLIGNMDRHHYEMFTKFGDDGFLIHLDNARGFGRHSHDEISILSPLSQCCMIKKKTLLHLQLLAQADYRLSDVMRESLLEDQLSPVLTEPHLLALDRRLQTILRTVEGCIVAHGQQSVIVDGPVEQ
T5 sequence (Q8IXL6 63-584 partner): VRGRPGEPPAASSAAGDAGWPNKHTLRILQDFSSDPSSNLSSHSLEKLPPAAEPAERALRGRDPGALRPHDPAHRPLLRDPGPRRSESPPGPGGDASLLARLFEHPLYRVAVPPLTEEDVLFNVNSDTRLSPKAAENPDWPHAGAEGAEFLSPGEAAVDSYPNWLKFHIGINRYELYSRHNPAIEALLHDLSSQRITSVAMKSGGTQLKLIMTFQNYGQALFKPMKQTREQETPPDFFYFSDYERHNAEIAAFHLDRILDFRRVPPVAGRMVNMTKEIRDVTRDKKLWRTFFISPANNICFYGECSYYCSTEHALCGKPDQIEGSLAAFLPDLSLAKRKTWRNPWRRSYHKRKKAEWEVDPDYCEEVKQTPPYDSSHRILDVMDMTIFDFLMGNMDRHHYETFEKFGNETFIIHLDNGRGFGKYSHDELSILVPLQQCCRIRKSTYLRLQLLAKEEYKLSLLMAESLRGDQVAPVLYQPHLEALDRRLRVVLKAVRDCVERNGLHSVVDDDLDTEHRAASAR
In words: X-ray crystal structure, […] Å. The test is classed as binding. The settings on record: 0.25 mM ATP; ATP-1 bound to Fam20A in inverted orientation; ATP-2 bound to Fam20A at a second site, possibly a crystallization artifact.

The target in test [6] is T6, Fam20A−drFam20C complex (Homo sapiens, UniProt Q96MK3).
T6 construct: human Fam20A residues 69-529 with zebrafish Fam20C residues 124-560, High Five cells, His6-MBP tags removed with TEV; heterotetramer; with Extracellular serine/threonine protein kinase FAM20C (Danio rerio)
T6 sequence (Q96MK3 69-529): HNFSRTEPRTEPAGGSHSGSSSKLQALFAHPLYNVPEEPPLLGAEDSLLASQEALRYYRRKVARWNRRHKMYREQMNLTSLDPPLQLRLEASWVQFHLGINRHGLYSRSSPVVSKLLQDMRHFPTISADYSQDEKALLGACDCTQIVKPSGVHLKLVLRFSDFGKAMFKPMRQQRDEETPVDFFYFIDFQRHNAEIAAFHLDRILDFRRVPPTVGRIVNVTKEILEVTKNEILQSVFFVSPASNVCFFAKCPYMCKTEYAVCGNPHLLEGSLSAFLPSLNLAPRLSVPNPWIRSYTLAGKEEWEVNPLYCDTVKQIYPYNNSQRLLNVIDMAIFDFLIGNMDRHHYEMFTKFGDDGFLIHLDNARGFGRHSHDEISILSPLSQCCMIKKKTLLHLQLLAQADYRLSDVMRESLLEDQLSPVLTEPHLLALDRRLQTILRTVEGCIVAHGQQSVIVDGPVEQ
T6 sequence (E7FBB8 26-545 partner): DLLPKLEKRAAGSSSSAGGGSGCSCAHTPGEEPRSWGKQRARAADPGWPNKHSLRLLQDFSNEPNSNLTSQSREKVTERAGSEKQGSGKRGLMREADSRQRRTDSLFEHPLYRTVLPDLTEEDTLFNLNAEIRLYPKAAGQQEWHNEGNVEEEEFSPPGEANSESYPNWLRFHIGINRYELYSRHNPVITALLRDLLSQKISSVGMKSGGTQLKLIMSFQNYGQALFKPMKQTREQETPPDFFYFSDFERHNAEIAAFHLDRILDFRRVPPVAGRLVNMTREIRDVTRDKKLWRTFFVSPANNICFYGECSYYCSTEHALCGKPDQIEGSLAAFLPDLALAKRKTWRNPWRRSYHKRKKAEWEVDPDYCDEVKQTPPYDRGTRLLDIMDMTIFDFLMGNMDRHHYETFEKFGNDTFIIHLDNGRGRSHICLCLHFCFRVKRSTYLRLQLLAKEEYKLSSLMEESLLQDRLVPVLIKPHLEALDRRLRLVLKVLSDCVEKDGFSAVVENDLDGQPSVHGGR
Briefly: X-ray crystal structure, […] Å. Format: binding. The note with it: 0.25 mM ATP; ATP-1 bound to Fam20A in inverted orientation.

The target in test [7] is T7, human Fam20C (residues 63-584), untagged (human, UniProt Q8IXL6 63-584).
T7 construct: human Fam20C, residues 63-584; also called hsFam20C; source: High Five insect cells (baculovirus), conditioned medium, purified (Ni-NTA, TEV digestion, Resource Q, size exclusion); not shown: His6, N-terminal, cleaved; MBP, N-terminal, cleaved
T7 sequence (looked up): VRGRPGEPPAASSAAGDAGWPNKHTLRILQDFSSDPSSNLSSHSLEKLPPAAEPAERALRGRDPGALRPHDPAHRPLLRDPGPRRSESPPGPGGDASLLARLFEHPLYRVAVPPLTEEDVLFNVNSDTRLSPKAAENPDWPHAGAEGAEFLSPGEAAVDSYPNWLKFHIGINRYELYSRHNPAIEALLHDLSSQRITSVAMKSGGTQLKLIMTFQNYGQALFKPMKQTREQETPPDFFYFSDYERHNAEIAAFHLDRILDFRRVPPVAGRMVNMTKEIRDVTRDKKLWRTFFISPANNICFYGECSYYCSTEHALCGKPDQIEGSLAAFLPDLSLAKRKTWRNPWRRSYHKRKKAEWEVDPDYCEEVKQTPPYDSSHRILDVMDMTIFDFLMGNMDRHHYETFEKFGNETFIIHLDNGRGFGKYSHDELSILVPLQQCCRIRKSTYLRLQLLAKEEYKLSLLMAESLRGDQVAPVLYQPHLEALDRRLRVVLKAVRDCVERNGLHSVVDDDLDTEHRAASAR
Briefly: crystal structure; human Fam20A-Fam20C complex, formed with 0.25 mM ATP and purified by size exclusion; crystals at 20 °C in 2% 1,4-dioxane, 0.1 M Bicine pH 9.0, 9% PEG 20,000. The settings on record: both partners purified. On the technique in general: SEC sorts molecules by how far they enter the pores of the column.

For `OC[C@H]1O[C@@H](O[C@@H]2CO[C@@H](OCc3ccccc3)[C@H](O)[C@H]2O)[C@H](O)[C@@H](O)[C@H]1O` [Gal-Xyl, Galβ1-4Xylβ1-O-benzyl], the “32P incorporation from [γ-32P]ATP, Sep-Pak C18, scintillation counting” value in test [1] was “in human Fam20B (K312R, Fig. 6c) completely abolishes kinase activity”; in test [2], “sponge (aqFam20) and hydra (hmFam20) phosphorylate the Gal-Xyl disaccharide”; in test [4], “phosphorylate the Gal-Xyl disaccharide with efficiencies similar to human Fam20B (hsFam20B)”. In addition, in test [3], the “X-ray crystal structure, 2.85 Å” value was “we also determined the structure of hmFam20 in complex with Gal-Xyl”.
For `Nc1ncnc2c1ncn2[C@@H]1O[C@H](COP(=O)(O)OP(=O)(O)OP(=O)(O)O)[C@@H](O)[C@H]1O` [ATP], in test [5], the “X-ray crystal structure, 3.30 Å” value is listed as “In both structures, an ATP molecule (ATP-1) is bound to Fam20A in an inverted orientation”. In test [6], the “X-ray crystal structure, 3.55 Å” value is given as “In both structures, an ATP molecule (ATP-1) is bound to Fam20A in an inverted orientation”.

B1: human Fam20A (residues 69-529), untagged (domain or fragment, UniProt Q96MK3 69-529, looked up)
chain: HNFSRTEPRTEPAGGSHSGSSSKLQALFAHPLYNVPEEPPLLGAEDSLLASQEALRYYRRKVARWNRRHKMYREQMNLTSLDPPLQLRLEASWVQFHLGINRHGLYSRSSPVVSKLLQDMRHFPTISADYSQDEKALLGACDCTQIVKPSGVHLKLVLRFSDFGKAMFKPMRQQRDEETPVDFFYFIDFQRHNAEIAAFHLDRILDFRRVPPTVGRIVNVTKEILEVTKNEILQSVFFVSPASNVCFFAKCPYMCKTEYAVCGNPHLLEGSLSAFLPSLNLAPRLSVPNPWIRSYTLAGKEEWEVNPLYCDTVKQIYPYNNSQRLLNVIDMAIFDFLIGNMDRHHYEMFTKFGDDGFLIHLDNARGFGRHSHDEISILSPLSQCCMIKKKTLLHLQLLAQADYRLSDVMRESLLEDQLSPVLTEPHLLALDRRLQTILRTVEGCIVAHGQQSVIVDGPVEQ
notes: human Fam20A, pseudokinase, residues 69-529; Crystallised and kept with 0.25 mM ATP; also called hsFam20A; source: High Five insect cells (baculovirus), conditioned medium, purified (Ni-NTA, TEV digestion, Resource Q, size exclusion); not shown: His6, N-terminal, cleaved; MBP, N-terminal, cleaved
For the molecule B1, the binding result in test [7] was “binds”.
